“And” between values parts separate entries of the source, which are not always exact repeats. Equal values may be shown once. “Also recorded” adds a separate entry of the source.

We go through five compounds from patent US20120282242A1 (priority 2002, published 2012).

For series [1], the system named is glaucoma patients. On the set-up: species or system human. As to conditions: in vivo.
Series [2] has as its system glaucoma patients. As to conditions: human, in vivo.
Series [3] concerns primary cultures of spinal cord neurons. Conditions: cited from earlier work.
Series [4] relates to brain synaptosome preparations. As to conditions: cited from earlier work.
Series [5] deals with glaucoma patients. As to conditions: human, in vivo. This is another data set of the same source.
Series [6] deals with eyelid muscles (Riolan's muscle, orbicularis muscle). Also noted: species or system human. Conditions: in vivo.
Series [7] has as its system eye muscles. As to conditions: in vivo.

As to botulinum toxin, the “disturbance of lid function / subjective complaints” value in series [1] was “did not lead to any apparent disturbance of lid function”. In series [2], the “12 week period average reduction of baseline eye pressure” value was found to be 16%; the “% IOP reduction” value is 16.6% and 11.5%; the “% reduction IOP” value is 12.5% and 10% and 7%; the “IOP post Rx during first 3 Rx” value is 26 and 24 and 23. Moreover, in series [2], the IOP reduction was 10.5% and 14%; the “reduction of IOP in the treated eye” value is “no reduction of IOP”. Besides, the “evoked release of glutamate” value in series [3] is reported as “inhibits the evoked release of glutamate”. In series [4], the “release of acetylcholine and glutamate” value is “inhibits the release of both neurotransmitters”. In series [5], the “Outcome: VF progression” value is “no VF progression; also recorded: minimal VF progression” and the “Outcome: progression of diabetic retinopathy” value is listed as “No progression of diabetic retinopathy”. In series [6], the “baseline eye pressure after injection” value was “A reduction of baseline eye pressure was also noted”, the “decrease in eye pressure per spike per blink” value is listed as “more than 5 mm Hg”, the “lower increase in eye pressure during forceful squeezing of the eyelids compared with control” value is ~50% and the “reduction in eye pressure after forceful closure of the eyes” value was ~35%. For the same compound, in series [6], the “spike in pressure during blinking measured by LMD” value is 25 mm Hg and 20 mm Hg.
For `NCC1(CC(=O)O)CCCCC1` [Gabapentin], the therapeutic effect result in series [7] was “achieved therapeutic effect”.
As to `COc1ccc(CCN(C)CCCC(C#N)(c2ccc(OC)c(OC)c2)C(C)C)cc1OC` (stereo not drawn) [verapamil], the therapeutic effect entry in series [7] is listed as “causes desired therapeutic effect”.
For `COc1cccc2c1C(=O)c1c(O)c3c(c(O)c1C2=O)C[C@@](O)(C(=O)CO)C[C@@H]3O[C@H]1C[C@H](N)[C@H](O)[C@H](C)O1` [doxorubicin], in series [7], the “effect on eye muscles” value was “reduce the strength of eye muscles”; the “reducing and modulating muscle volume and muscle contraction” value is “have proven to be effective”.
`CCN(CC)CC(=O)Nc1c(C)cccc1C` [lidocaine, Diethylaminoacet-2,6-xylidide]: the “modulation of muscle action” value in series [7] (iv) is on record as “promotes the desired effect, but the effect is short lived”.
